Measured values: US7589169B2, “Compositions for treatment with glucagon-like peptide, and methods of making and using the same” (Pharmain Corporation, priority 2002, dated 2009)

Tested on: rat pancreatic ductal cell line ARIP
Assay: Trans-differentiation of ARIP ductal cells, RT-PCR of beta-cell specific genes
Type: cell-based
Details: ARIP cells cultured with GLP-1, RT-PCR
Experimental: Based on previous studies, insulin mRNA should be detectable after 48 h, GLUT-2 after 24 h and glucokinase mRNA at 72 h. […] RT-PCR for β-actin will be used as a control for cDNA loading.

glucagon-like peptide 1 [GLP-1]
time after which GLUT-2 mRNA should be detectable: 24 h | time after which insulin mRNA should be detectable: 48 h | time at which glucokinase mRNA should be detectable: 72 h
